The nature of the data set: Calcium Binding Constants Determination (calcium selective electrode titration). In kind it is physicochemical. The settings on record: for Calcium Ion Binding Constants, Log KCa, pH 9.5 / Calcium Ion Binding Constants, Log KCa, pH 7.6: 35° C., 0.1 M ionic strength. An excerpt:
A computer system (Hewlett-Packard) with digital voltmeters was used to collect and analyze data from an Orion calcium selective electrode and a linear syringe buret (Sage Instruments syringe pump plus a linear potentiometer). […] Volumetric accuracy was better than +/- 0.5%.
Three hundred data pairs of [Ca total] vs 10^(E/S), which is a linear measure of [Ca free], were collected and corrected for dilution during each titration. S is the Nernst equation slope, ca. 29 mv/decade, and E is the calcium electrode voltage. Calcium ion was titrated into buffer solution. Here, L represents the sequestering ligand. A ligand-free standard titration calibrated the electrode response. […] A third titration, adding Ca ion to a solution of a fixed [L tot] and fixed [Mg tot] was compared with KCa at different [Ca tot]/[L tot] ratios to reveal KMg at those same ratios. [formula]
This line was extrapolated back to [Ca free]=0 and [Ca tot] at that point represented a measure of calcium binding capacity.

The structures appear in SMILES notation. Counter-ions that a name gives are not always drawn.

With `O=C(O)COC(CC(=O)O)C(=O)O` (stereo not drawn) [2-oxa-1,3,4 butanetricarboxylic acid, sodium salt, reference compound], the “Calcium Ion Binding Constants, Log KCa, pH 9.5” value is given as 4.4.
As to `O=C(O)COC(CC(=O)O)(C(=O)O)C(=O)O` [Compound 5, 3,3-dicarboxy-4-oxa-1,6 hexanedioic acid, tetrasodium salt], the “Calcium Ion Binding Constants, Log KCa, pH 7.6” value was found to be 5.3; the “Calcium Ion Binding Constants, Log KCa, pH 9.5” value is listed as 5.5; the “calcium binding relative to sodium tripolyphosphate and sodium nitrilotriacetate” value is listed as “at least equivalent”; the “calcium binding relative to two prior art ether carboxylates and sodium citrate” value is recorded as “clear advantage in calcium binding”.
As to `O=C([O-])C1CCC(C(=O)[O-])C(C(=O)[O-])(C(=O)[O-])O1.[Na+].[Na+].[Na+].[Na+]` (stereo not drawn) [Compound 7, Oxacyclohexane-2,2,3,6-tetracarboxylic acid, tetrasodium salt], the “Calcium Ion Binding Constants, Log KCa, pH 9.5” value came to 6.2; the “calcium binding relative to sodium tripolyphosphate and sodium nitrilotriacetate” value is on record as “at least equivalent”; the “calcium binding relative to two prior art ether carboxylates and sodium citrate” value is on record as “clear advantage in calcium binding”.
As to `O=C([O-])CN(CC(=O)[O-])CC(=O)[O-].[Na+].[Na+].[Na+]` [Nitrilotriacetic acid, sodium salt, reference compound], the “Calcium Ion Binding Constants, Log KCa, pH 7.6” value is 3.3 and the “Calcium Ion Binding Constants, Log KCa, pH 9.5” value came to 5.5.
Take `O=P(O)(O)OP(=O)(O)OP(=O)(O)O` [Sodium tripolyphosphate, reference compound]: the “Calcium Ion Binding Constants, Log KCa, pH 7.6” value came out at 3.1 and the “Calcium Ion Binding Constants, Log KCa, pH 9.5” value turned out to be 4.9.

(Values after patent US4566984A, “Ether polycarboxylates” (The Procter & Gamble Company, priority 1984, dated 1986).)
